Laboratory results from ChEMBL document CHEMBL5030507, “Structure-Based Design of a Selective Class I Histone Deacetylase (HDAC) Near-Infrared (NIR) Probe for Epigenetic Regulation Detection in Triple-Negative Breast Cancer (TNBC)” (J Med Chem, 2021).

Experiments:
Histone deacetylase 1 = Histone deacetylase 1 (Homo sapiens, UniProt Q13547); assay: Inhibition of recombinant human C-terminal FLAG/His-tagged HDAC1 (1 to 482 residues) expressed in Sf9 insect cells using fluorometric substrate measured after 60 mins by FRET assay
Histone deacetylase 1, sequence (Q13547 whole entry, the tested form may be a part): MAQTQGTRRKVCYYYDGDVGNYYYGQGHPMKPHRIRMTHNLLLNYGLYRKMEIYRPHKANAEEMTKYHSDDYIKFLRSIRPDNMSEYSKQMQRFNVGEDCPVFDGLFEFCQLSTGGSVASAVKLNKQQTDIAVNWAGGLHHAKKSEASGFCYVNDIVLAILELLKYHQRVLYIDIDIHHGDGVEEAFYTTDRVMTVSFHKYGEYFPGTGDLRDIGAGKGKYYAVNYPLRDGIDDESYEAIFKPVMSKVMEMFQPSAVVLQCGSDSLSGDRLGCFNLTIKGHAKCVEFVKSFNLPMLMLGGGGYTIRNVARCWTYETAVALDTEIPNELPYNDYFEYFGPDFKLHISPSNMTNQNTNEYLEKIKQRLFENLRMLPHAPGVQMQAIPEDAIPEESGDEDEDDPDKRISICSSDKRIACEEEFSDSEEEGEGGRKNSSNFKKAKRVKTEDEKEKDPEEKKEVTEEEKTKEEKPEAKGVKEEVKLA

Histone deacetylase 2 = Histone deacetylase 2 (Homo sapiens, UniProt Q92769); assay: biochemical; format: cell-based, Sf9
Histone deacetylase 2, sequence (Q92769 whole entry, the tested form may be a part): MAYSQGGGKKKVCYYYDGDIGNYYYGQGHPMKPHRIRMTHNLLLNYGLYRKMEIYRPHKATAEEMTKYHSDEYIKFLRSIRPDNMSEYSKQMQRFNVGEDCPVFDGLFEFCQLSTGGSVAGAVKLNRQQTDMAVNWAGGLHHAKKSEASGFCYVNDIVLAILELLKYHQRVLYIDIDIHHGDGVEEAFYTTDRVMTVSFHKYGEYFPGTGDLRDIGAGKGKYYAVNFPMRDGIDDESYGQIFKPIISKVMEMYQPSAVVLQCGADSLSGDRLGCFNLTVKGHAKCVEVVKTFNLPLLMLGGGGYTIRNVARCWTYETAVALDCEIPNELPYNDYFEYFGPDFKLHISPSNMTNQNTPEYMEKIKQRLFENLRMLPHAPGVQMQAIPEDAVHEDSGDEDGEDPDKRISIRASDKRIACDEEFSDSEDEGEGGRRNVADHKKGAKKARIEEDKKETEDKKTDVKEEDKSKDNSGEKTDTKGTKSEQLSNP
Description: Inhibition of recombinant human full length C-terminal His- tagged HDAC2 (1 to 488 residues) expressed in Sf9 insect cells using fluorometric substrate measured after 60 mins by FRET assay

Histone deacetylase 4 = Histone deacetylase 4 (Homo sapiens, UniProt P56524); assay: Inhibition of recombinant human N-terminal GST-tagged/C-terminal His-tagged HDAC4 (627 to 1084 residues) expressed in baculovirus infected Sf9 insect cells using fluorogenic substrate measured after 60 mins by FRET assay
Histone deacetylase 4, sequence (P56524 whole entry, the tested form may be a part): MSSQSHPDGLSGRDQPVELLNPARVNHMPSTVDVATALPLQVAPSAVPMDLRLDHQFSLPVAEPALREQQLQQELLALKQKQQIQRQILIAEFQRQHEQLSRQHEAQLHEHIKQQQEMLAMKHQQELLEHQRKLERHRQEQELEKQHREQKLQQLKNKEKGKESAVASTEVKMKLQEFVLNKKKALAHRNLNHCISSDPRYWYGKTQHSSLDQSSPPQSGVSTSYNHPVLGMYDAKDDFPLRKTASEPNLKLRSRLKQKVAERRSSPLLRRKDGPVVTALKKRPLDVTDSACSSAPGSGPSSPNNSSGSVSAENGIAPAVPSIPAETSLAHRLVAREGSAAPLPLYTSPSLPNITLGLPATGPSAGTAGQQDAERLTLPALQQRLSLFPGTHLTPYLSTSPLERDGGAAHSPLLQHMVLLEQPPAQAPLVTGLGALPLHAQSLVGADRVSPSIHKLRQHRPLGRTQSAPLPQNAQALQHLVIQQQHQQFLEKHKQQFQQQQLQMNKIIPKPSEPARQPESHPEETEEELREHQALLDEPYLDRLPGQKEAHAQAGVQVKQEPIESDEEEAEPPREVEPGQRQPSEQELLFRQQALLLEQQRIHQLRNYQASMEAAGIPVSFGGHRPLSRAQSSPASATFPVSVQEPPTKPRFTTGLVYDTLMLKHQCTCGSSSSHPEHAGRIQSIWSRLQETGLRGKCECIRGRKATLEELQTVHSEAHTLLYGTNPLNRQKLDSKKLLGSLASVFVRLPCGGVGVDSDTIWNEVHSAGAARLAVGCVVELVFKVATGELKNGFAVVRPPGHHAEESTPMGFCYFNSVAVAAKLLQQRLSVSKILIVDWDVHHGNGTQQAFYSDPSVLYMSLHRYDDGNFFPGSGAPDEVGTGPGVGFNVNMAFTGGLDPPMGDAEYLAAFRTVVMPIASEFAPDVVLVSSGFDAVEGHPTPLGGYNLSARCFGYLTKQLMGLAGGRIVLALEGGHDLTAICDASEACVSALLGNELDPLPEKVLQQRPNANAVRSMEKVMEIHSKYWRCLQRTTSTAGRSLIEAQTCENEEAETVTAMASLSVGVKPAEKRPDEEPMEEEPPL

Histone deacetylase 5 = Histone deacetylase 5 (Homo sapiens, UniProt Q9UQL6); assay: Inhibition of recombinant human full length N-terminal GST-tagged HDAC5 expressed in baculovirus infected Sf9 insect cells using fluorogenic substrate measured after 60 mins by FRET assay
Histone deacetylase 5, sequence (Q9UQL6 whole entry): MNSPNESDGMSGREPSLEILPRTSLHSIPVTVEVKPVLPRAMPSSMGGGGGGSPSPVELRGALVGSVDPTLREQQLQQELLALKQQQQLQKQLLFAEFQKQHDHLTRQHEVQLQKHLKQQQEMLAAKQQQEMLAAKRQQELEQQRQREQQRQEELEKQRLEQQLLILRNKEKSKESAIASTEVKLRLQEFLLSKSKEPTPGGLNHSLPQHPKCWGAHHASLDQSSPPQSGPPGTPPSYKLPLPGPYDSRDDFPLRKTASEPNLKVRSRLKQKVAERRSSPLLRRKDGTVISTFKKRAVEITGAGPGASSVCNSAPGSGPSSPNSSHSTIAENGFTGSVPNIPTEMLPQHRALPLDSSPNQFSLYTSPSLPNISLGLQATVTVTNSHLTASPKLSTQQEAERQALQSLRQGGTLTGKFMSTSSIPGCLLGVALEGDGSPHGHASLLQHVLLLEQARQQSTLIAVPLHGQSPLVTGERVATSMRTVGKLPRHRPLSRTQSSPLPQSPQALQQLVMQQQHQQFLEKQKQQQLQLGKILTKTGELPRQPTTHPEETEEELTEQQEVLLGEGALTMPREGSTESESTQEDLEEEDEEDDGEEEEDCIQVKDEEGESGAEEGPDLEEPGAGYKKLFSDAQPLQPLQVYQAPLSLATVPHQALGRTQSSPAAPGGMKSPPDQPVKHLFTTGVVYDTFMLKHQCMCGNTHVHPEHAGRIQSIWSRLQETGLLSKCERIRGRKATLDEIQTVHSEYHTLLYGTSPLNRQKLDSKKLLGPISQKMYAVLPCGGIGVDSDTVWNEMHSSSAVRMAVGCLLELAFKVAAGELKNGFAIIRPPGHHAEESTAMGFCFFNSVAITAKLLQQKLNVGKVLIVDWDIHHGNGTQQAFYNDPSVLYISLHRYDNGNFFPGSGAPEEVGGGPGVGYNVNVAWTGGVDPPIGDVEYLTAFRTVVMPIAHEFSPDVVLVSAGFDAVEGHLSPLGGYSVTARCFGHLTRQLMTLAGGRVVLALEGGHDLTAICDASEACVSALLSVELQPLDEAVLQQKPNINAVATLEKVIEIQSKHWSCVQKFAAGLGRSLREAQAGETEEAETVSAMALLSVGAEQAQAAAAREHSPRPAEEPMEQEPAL

Histone deacetylase 7 = target: T1, Histone deacetylase 7 (Homo sapiens, UniProt Q8WUI4); assay: Inhibition of recombinant human N-terminal GST-tagged HDAC7 expressed in baculovirus infected Sf9 insect cells using fluorogenic substrate measured after 60 mins by FRET assay
T1 sequence (Q8WUI4 whole entry): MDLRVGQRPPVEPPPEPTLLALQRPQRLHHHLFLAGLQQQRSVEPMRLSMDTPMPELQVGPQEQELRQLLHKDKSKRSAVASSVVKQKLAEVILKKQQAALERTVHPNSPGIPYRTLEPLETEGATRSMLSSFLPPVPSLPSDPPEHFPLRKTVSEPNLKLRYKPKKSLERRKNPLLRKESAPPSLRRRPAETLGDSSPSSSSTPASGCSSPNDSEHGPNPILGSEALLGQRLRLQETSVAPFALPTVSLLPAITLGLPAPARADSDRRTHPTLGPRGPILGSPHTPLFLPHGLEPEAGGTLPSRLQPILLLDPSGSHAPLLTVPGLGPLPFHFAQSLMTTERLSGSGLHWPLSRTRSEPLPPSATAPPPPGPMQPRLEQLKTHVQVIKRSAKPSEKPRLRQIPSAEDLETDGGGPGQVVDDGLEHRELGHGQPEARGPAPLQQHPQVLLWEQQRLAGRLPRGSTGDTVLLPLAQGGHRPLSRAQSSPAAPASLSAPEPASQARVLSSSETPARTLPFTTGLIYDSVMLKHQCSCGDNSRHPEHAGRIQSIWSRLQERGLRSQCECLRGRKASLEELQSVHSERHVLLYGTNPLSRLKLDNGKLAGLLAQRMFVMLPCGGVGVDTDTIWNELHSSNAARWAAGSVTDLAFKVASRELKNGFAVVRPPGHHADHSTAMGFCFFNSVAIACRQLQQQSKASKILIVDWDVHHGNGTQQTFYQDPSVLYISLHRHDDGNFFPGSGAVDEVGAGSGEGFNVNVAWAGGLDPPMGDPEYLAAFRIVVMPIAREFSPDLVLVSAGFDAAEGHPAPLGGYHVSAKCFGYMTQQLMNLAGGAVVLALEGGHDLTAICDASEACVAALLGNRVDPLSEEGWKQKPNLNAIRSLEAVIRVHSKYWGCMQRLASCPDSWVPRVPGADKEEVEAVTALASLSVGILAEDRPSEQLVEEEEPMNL

Histone deacetylase 9 = Histone deacetylase 9 (Homo sapiens, UniProt Q9UKV0); assay: Inhibition of recombinant human C-terminal His-tagged HDAC9 (604 to 1066 residues) expressed in baculovirus infected Sf9 insect cells using fluorogenic substrate measured after 60 mins by FRET assay
Histone deacetylase 9, sequence (Q9UKV0 whole entry, the tested form may be a part): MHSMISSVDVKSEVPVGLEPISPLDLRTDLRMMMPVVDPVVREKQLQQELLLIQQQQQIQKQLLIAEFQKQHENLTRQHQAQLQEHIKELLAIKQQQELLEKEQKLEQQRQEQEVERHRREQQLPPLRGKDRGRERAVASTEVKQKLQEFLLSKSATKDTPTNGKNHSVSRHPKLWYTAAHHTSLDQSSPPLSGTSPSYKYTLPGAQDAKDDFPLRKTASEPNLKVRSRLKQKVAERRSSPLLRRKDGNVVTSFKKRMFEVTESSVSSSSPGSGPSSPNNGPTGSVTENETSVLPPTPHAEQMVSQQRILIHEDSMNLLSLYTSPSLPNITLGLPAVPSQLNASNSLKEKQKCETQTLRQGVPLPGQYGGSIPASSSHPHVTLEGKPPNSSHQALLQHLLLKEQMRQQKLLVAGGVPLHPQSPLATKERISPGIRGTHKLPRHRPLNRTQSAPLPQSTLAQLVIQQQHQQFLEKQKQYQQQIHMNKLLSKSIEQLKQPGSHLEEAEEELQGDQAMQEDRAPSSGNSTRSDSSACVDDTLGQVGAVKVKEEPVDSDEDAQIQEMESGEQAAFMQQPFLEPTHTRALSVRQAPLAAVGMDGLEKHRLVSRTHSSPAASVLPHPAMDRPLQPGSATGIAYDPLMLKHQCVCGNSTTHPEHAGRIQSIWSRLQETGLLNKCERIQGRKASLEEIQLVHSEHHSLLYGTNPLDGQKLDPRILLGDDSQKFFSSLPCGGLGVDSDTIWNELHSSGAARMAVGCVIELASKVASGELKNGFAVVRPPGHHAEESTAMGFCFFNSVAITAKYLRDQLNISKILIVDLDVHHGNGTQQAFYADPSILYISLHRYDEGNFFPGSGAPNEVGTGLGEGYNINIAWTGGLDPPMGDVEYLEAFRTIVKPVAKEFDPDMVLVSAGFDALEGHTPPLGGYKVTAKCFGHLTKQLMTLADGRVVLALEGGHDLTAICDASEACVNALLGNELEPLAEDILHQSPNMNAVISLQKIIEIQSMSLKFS

[1] = target: T2, Polyamine deacetylase HDAC10 (Homo sapiens, UniProt Q969S8); assay: Inhibition of recombinant human N-terminal FLAG tagged HDAC10 (2 to 631 residues) expressed in baculovirus infected Sf9 insect cells using fluorogenic substrate measured after 60 mins by FRET assay
T2 sequence (Q969S8 whole entry): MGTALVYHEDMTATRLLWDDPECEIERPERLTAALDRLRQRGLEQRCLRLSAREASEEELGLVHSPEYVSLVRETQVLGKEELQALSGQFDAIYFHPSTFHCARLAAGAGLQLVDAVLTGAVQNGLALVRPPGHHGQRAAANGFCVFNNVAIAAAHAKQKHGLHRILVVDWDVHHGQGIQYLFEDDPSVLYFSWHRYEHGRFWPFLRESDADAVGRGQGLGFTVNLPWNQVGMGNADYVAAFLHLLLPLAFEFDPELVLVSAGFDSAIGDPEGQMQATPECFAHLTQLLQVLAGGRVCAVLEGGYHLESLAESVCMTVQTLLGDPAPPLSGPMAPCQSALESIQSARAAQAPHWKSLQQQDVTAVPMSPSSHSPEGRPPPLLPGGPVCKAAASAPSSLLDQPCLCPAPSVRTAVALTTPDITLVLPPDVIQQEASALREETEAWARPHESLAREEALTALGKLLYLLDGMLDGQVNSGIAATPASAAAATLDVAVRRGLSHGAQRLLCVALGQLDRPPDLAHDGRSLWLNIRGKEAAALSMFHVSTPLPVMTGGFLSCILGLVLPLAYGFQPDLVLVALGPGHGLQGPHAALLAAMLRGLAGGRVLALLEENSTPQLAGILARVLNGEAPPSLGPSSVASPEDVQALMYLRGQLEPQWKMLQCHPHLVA

MDA-MB-231 = assay: Antiproliferative activity against triple-negative human MDA-MB-231 cells assessed as cell growth inhibition incubated for 72 hrs by CCK8 assay; format: functional
[2] = Cytotoxicity against human WI-38 cells assessed as cell growth inhibition incubated for 72 hrs by CCK8 assay; format: cell-based
[3] = Selectivity index, ratio of GI50 for cytotoxicity against human WI-38 cells to GI50 for antiproliferative activity against triple-negative human MDA-MB-231 cells; format: toxicity, cell-based; details: WI-38 cells versus MDA-MB-231 cells, read-out: RatioGI50

IC50 (Histone deacetylase 1): 0.0058 µM | IC50 (Histone deacetylase 2): 0.0075 µM | IC50 (Histone deacetylase 4): > 10 µM | IC50 (Histone deacetylase 5): > 10 µM | IC50 (Histone deacetylase 7): > 10 µM | IC50 (Histone deacetylase 9): > 10 µM | IC50 [1]: > 10 µM | GI50 (MDA-MB-231): 0.0119 µM
SMILES: C/C=C1\NC(=O)c2csc(n2)CNC(=O)C[C@@H](/C=C/CCSSCCCCCCC)OC(=O)[C@H](CCCCN)NC1=O
GI50 at 72 h [2]: 2.32 µM | selectivity ratio [3]: 194
